Publication PMC5382548 (Scientific Reports, 2015)
pIC50: −log10 of the molar value. Where “and” joins values, the source holds several entries; their conditions need not be identical. Equal entries are not always repeated.

What was measured:
[1] = system: ALT (telomerase negative human lung fibroblast); test: SRB short-term cytotoxicity assay, ALT; format: cell-based; conditions: 96 h
Method: Short-term anti-proliferative assays were carried out by two different assays using a panel of human cancer and non-malignant human cell lines. […] The transformed human embryonic kidney cell line HEK293T (wt KRAS) was sensitive to all tested drugs, including TMPyP4, a cationic porphyrin established as a G4 ligand, as well as the anticancer drug 5-fluorouracil (5-FU).
Human cell lines, breast carcinoma (MCF7), lung carcinoma (A549), pancreatic cancer (MIA PaCa2, Panc-1), immortalised telomerase-negative human lung fibroblast (ALT) and normal human lung fibroblast (WI-38), were all purchased from American Type Cell Culture (ATCC). Cell lines were maintained in appropriate medium supplemented with 10% fetal bovine serum (Invitrogen, UK), 2 mM L-glutamine (Invitrogen, Netherlands), and other components as specified by the suppliers. All cell lines were maintained at 37°C, 5% CO2, and routinely passaged. Short-term growth inhibition was measured using the SRB assay as described previously[43] (additional details described in Supplementary Information). […]
Sulforhodamine B (SRB) short-term cytotoxicity assay
Cells were seeded at appropriate densities into the wells of 96 well plates in their corresponding medium and incubated overnight to allow the cells to attach. Subsequently cells were exposed to various concentrations of freshly made solutions of drugs and incubated for 96 h. The cells were subsequently fixed with ice-cold trichloacetic acid (TCA) (10%, w/v) for 30 min and stained with 0.4% SRB dissolved in 1% acetic acid for 15 min.
All incubations were carried out at room temperature except for TCA fixation, which was at 4 °C. […]
After electrophoretic transfer onto nitrocellulose membranes, immunoblots were blocked with 5% milk solution, and next incubated overnight at 4 °C with primary mouse monoclonal antibody reactive to KRAS/p53 (#sc-30/sc-126; Santa Cruz Biotechnology Inc., Santa Cruz, CA, USA). […] Steady-state protein levels were expressed as mean ±SEM from at least three independent experiments.

[2] = system: double-stranded DNA (26ds); test: Spectrofluorimetric titration with 26ds DNA; format: binding; conditions: for Apparent association constant Ka (26ds): ligand 1 μM, K-cacodylate pH 7.4, 60 mM K+, 25°C; for Hill constant h (26ds): one-site saturation binding Hill slope model
Method: To characterize the binding of IQc to DNA structures, spectrofluorimetric titration assays were performed with the non-substituted (2a), mono-alkyldiamine (2d) and di-alkyldiamine (3e) derivatives using un-labelled KRAS21R G4 and 26ds-DNA. […] Their fluorescence intensity was proportional to concentration up to 10 μM. […] The fluorescence titration data (Figure 4) was fitted to the Scatchard model[25] (Figure 4, insets). […] Scatchard plots of 2d and 3e (Figure 4b–c, insets) are all concave-down nonlinear curves, which may denote different positive cooperative binding sites in G4, with more than one equivalent and non-independent binding sites. […] Therefore, association constants for 2d and 3e were obtained from the one-site saturation binding Hill slope model (Figure 4b–c). These are apparent binding constants, i.e. they are macroscopic Ka which reflect the total binding.
Figure 4 Fluorescence data of (a) 2a, (b) 2d, and (c) 3e (1 μM) in K-cacodylate buffer (pH 7.4, containing 60 mM K^+) at 25°C, titrated with KRAS21R and HT21 G4s, and 26ds, fitted to the saturation binding equations and Scatchard model (insets).
Fluorescence data were collected with a λex of 290 nm and a λem around 475 nm for 2d and 3e, and a λex of 275 nm and a λem around 460 for 2a. Test compounds were prepared as 1 mM in HPLC-grade water (10% DMSO) stock solutions. The rest of the dilutions were performed using K-cacodylate buffer (pH = 7.4, containing 60 mM K^+). The G4 single-strand oligonucleotide sequences were initially diluted from the storage solution (100 μM) with K-cacodylate, to a stock solution at 25 μM. The titration data were obtained by adding aliquots of previously annealed G4 (heating to 95°C for 10 min, followed by slow cooling to RT) to a solution of the indolo[3,2-c]quinoline ligand (1 μM) in K-cacocylate buffer at 25°C (additional details in Supplementary Information).
Figure S7. Fluorescence titrations of 1 μM indolo[3,2-c]quinoline 2d (1µM) with KRAS21R G4 and 26ds DNA in K-cacodylate buffer pH 7.4, containing 60 mM K+ at 25 °C.
Concentration of DNA increase from the top to the bottom (grey lines) Excitation […]
Figure S8. Fluorescence titrations of 1 μM indolo[3,2-c]quinoline 3e (1µM) with KRAS21R […]
The titration data obtained were used to construct Scatchard plots with the concentration of bound and free ligand (Cb and Cf, respectively). […]
number of moles of ligand bound to 1 mol of G4 (r = Cb/CDNA) were calculated.
Saturation binding isotherms were represented as Scatchard plots, by plotting r/Cf versus r and evaluated according to the model of McGhee and von Hippel. Dissociation constants were determined by fitting the titration experimental data to one-site saturation binding equation or to one-site saturation binding to the Hill slope equation supplied with the GraphPad PRISM software (GraphPad, Version 5.00, San Diego, CA).
Association constants (Ka) were calculated from dissociation constants (Kd). Scatchard lines represented in the Scatchard plots were calculated from the data fitting to the binding equations (x = 0, y = Fmax/Kd; x = Fmax , y = 0; slope = -Ka). […]

## CCN(CC)CCCNc1ccc2c(c1)c1[nH]c3ccccc3c1c[n+]2C [2d]
[1]
  pIC50: 5.71
[2]
  Apparent association constant Ka (26ds): 2.8e+06 M⁻¹
  Hill constant h (26ds): 1.5

## Cn1cc2c3ccccc3nc-2c2cc(Br)ccc21 [2a, 2-bromo-5-methyl-indolo[3,2-c]quinoline]
[1]
  pIC50: 5.32
[2]
  Apparent association constant Ka (26ds): 0.8 × 10^6 M^−1 and 0.8/-- × 10^6 M^−1

## CCN(CC)CCCNc1ccc2c(c1)[nH]c1c2c[n+](C)c2ccc(NCCCN(CC)CC)cc12.[Cl-] [3e]
[1]
  pIC50: 5.15
[2]
  Apparent association constant Ka (26ds): 3.2e+06 M⁻¹
  Hill constant h (26ds): 2.5
